Values of other authors in patent US20130022829A1, “OIL BORNE WOOD PRESERVING COMPOSITION FOR TREATMENT OF POLES, POSTS, PILING, CROSSTIES AND OTHER WOODED STRUCTURES” (Osmose, Inc., priority 2009, published 2013).

System: Poria
Settings: background statement on copper soaps

Row | Compound | efficacy against copper tolerant fungi, e.g., Poria sp.
1 | CCCCC(CC)C(=O)[O-].CCCCC(CC)C(=O)[O-].[Cu+2] (centres unmarked) [Cu-octoate] | insufficient efficacy
2 | Cu-naphthenate | insufficient efficacy
